Results: a melting point compilation (Tetko et al.; mined from patent text by program, amines drawn as free bases though some values may be those of a salt)

| melting point [°C] | Structure (SMILES) |
| --- | --- |
| 295 to 298 | CCCc1c(CC)sc2[nH]c(=O)c(=O)[nH]c12 |
| 98 to 100 | CCOC(=O)c1cc(C(=O)c2ccc(C)cc2)n(C)c1C |
| 225 to 226 | CC(=O)Nc1cccc(-c2nc3n(n2)CCc2ccccc2-3)c1 |
| 175 to 177 | CCOC(=O)c1nc[nH]c1C(=O)OCC |
| 142 to 143 | COc1ccc(-c2sc3cc(OC)ccc3c2C#N)cc1 |
| 112 to 113 | Cc1c(C)c2c(c(C)c1N)CC(C)(CN1CCC(c3ccccc3)CC1)O2 (centres undefined) |
| 98 | CC(C)(C)OC(=O)COC[C@@H]1C[C@@H](SC(c2ccccc2)(c2ccccc2)c2ccccc2)CN1S(C)(=O)=O |
| 94 to 96 | CC(=O)c1ccc(OCCCN2CCC(c3noc4cc(F)ccc34)CC2)c(N(C)C)c1 |
| 80 | CC(C)(C)CC(C)(C)c1ccc(Nc2ccc(Cc3ccc(Nc4ccc(C(C)(C)CC(C)(C)C)cc4)c4ccccc34)c3ccccc23)cc1 |
| 138 to 140 | CSc1sc(-c2cncs2)c2c1C(=O)CC(C)(C)C2 |
| 125 to 129 | N#Cc1ccc(C(=O)NCCCCn2cnc3c(N)nc4ccccc4c32)cn1 |
| 147 to 149 | O=C(O)c1cn(CCO)nc1[N+](=O)[O-] |
| 158 to 159 | COc1ccc(CC(C(=O)O)S(C)(=O)=O)cc1C(=O)NCc1ccc(C(F)(F)F)cc1 (centres undefined) |
| 120 to 121 | CN(C)C(=S)SC(C[N+](=O)[O-])c1cc([N+](=O)[O-])ccc1Cl (centres undefined) |
| 140 to 142 | CCOC(=O)c1ncc(Cl)cc1N |
| 149 to 152 | COC(=O)c1ccccc1NC(=S)NN(C)C |
| 175 | COc1ccc2ccc(N3C(=O)c4ccccc4C3OCC(=O)NC3CCCCC3)nc2n1 (centres undefined) |
| 104 to 106 | COc1ccc(N2C(=O)C(O[Si](C(C)C)(C(C)C)C(C)C)C2C=Cc2ccco2)cc1 (centres undefined) |
| 54 to 55 | COC(=O)CCc1cnoc1-c1ccc(Cl)c(Br)c1 |
| 93 | CCOC(=O)c1ccc(N)cc1Br |
| 239 | CCOCc1c2c(cc3c(=O)cc(C(=O)O)oc13)CCCC2 |
| 183 to 185 | COc1ccc(CS(=O)(=O)c2cc3c(OC)cc(OC)cc3oc2=O)cc1 |
| 66 to 68 | COCOc1ccc(C(=O)CI)c(OCc2ccccc2)c1 |
| 151 to 157 | CCCCCN(C(=O)Nc1ccc(C(=O)O)cc1F)c1ccc2c(c1)C(C)(C)CCC2(C)C |
| 202 | O=C(Nc1ccccc1)Nc1onc2c1CCC2 |
| 92 to 94 | Fc1ccc(-c2cncc(CNCCOc3cccc4ccccc34)c2)cc1 |

| melting point [°C] | Structure (SMILES) |
| --- | --- |
| 93 | CCOC(=O)c1cc(CCc2cc(OC)ccc2OC)ccc1NC(C)=O |
| 90 to 91 | COc1ccc(NC(=O)CCl)c(OC)c1 |
| 85 to 86 | CCOCN1C(C)=C(C(=O)O)[C@H](c2cccc([N+](=O)[O-])c2)C(C(=O)OCOC(=O)C(C)(C)C)=C1C |
| 190 to 191 | O=C(O)C1=Cc2c(Cl)cc(Cl)cc2OC1C(F)(F)F (centres undefined) |
| 120 to 122 | N=C(N)NC(=O)OCc1ccccc1 |
| 222 to 224 | CCC(CC)c1ccc(Cl)c2nc3n(c12)CC(=O)N3c1cnc(N(C)C)cc1C |
| 282 to 285 | Brn1nnc2c3scnc3ccc21 |
| 163 to 167 | Fc1ccc2c(c1F)OCc1csc(=S)n1-2 |
| 186 to 188 | CC1(C)C(=O)N(c2ccc([N+](=O)[O-])c(C(F)(F)F)c2)C(=O)N1CCOCCN1C(=O)N(c2ccc([N+](=O)[O-])c(C(F)(F)F)c2)C(=O)C1(C)C |
| 110 to 111 | O=[N+]([O-])c1cc(-c2ccncc2)ccc1Cl |
| 92 to 94 | CCOC(=O)c1ccc(/C=C(\CCCc2ccc(OC)cc2)Cn2ccnc2)cc1 |
| 193 to 194 | Cc1c(Cc2cccc(C(F)(F)F)c2)sc2c(-c3cc(C(N)=O)ccn3)cccc12 |
| 49 to 50 | Cc1c(Br)ccc(F)c1N |
| 114 to 116 | CN(C)CCC1CCCCN1CCN(C)C(=O)N1c2ccccc2C(=O)Nc2cccnc21 (centres undefined) |
| 130 to 131 | COC(=O)C1=Cc2ccc(OCc3nc(-c4ccccc4)oc3C)cc2CC1 |
| 162 to 163 | CCCCNC(=O)[C@H](C)C[C@H](O)[C@H](CC1CCCCC1)NC(=O)[C@H](Cc1cscn1)NC(=O)[C@@H](CC(=O)N1CCOCC1)Cc1ccccc1 |
| 125 to 127 | O=C(Nc1nccs1)C(CC1CCCC1)c1ccc(F)c(C(F)(F)F)c1 (centres undefined) |
| 192 to 193 | O=C1c2ccccc2C(=O)N1CC(=O)N1c2ccccc2N(CCCc2ccccc2)C(=O)[C@H]2CCC[C@H]21 (relative stereo) |
| 260 to 262 | Nc1ncnc2c1ncn2C(c1ccccc1)(c1ccccc1)c1ccccc1 |
| 178 to 179 | COc1cc2c(cc1C(O)COc1ccc(C(=O)O)c(O)c1)C(C)(C)CCC2(C)C (centres undefined) |
| 128 to 130 | O=C1CC2(CCCC2)CC(=O)N1CCCCN1CCN(c2nsc3ccccc23)CC1 |
| > 300 | O=C(O)c1ccc(NC(=O)c2ccc(F)cc2)cc1 |
| 257 | NC(=S)Cc1cccc(-c2nc(=O)c3ccccc3s2)n1 |
| 238 to 239 | Nc1ncnc2[nH]cc(-c3ccccc3)c12 |
| 156 to 158 | Cc1onc(NS(=O)(=O)c2cccs2)c1Br |

The remaining lines, values behind:

| Structure (SMILES) | melting point [°C] |
| --- | --- |
| CCOC1CC(n2cc(CC)c(=O)[nH]c2=O)OC1CNC(=O)C(C)Oc1ccc(Cl)cc1Cl (mixture of isomers) | 121 to 124 |
| CCOCn1c(C(N)=O)c(OC(C)C)c2cc(OC)ccc21 | 110 to 112 |
| CN(C)C(=O)Cn1c(-c2ccc(F)cc2)nc2cccnc21 | 180 to 183 |
| COCOc1ccc(C2(c3cccc(-c4cccnc4F)c3)N=C(N)N3CCCN=C32)cc1 (centres undefined) | 95 to 105 |
| Cn1c(-c2ccc(F)cc2)c(OCCOc2ccc(C=C3SC(=O)NC3=O)cc2)c(=O)c2ccccc21 | 225 to 228 |
| COc1ccc(-c2nnc(N3CCN(C)CC3)nc2-c2ccc(OC)cc2)cc1 | 158 to 160 |
| CCOC(=O)C1=C(C)NC(C)=C(C(=O)OCC)C1c1cccc(Cl)c1Cl | 125 to 126 |
| CCCc1c(OCCCCCCc2cccc(CCCCCC(=O)O)c2CCC(=O)O)ccc2c1OCCC2=O | 109 to 110 |
| CC(C)[C@H]1c2ccc(F)cc2CC[C@]1(O)CCNCc1nc2ccccc2s1 | 102 to 103 |
| O=c1[nH][nH]c(C(F)(F)F)c1Cc1ccc(Cl)cc1 | 151 to 152 |
| CCOC(=O)c1nc2ccc(OC)cc2nc1Cl | 75 |
| CCCCCCCCCCCCCCCCCC(O)c1ccc(C2=NC(C)(C)CO2)cc1 (centres undefined) | 72 to 75 |
| CSC(=C[N+](=O)[O-])NCCSCc1ncccc1Br | 79 to 80 |
| COc1ccccc1CCC(=O)Nc1sc2c(c1C#N)CCN(C(=O)OC(C)(C)C)C2 | 198 |
| CN1C(=O)CN=C(c2ccccc2F)c2c1ccc(N)c2Cl | 126 |
| C=CCN1C(=O)NC(C)=C(C(=O)OC(C)C)C1c1cccc([N+](=O)[O-])c1 (centres undefined) | 172 to 174 |
| CCOC(=O)c1cn(CC)c2nc(N3CCN(C=O)CC3)ncc2c1=O | 195 |
| Cn1ncnc1COc1nn2c(-c3ccccc3F)nncc2c1-c1cccc(-c2cccnc2)c1 | 157 to 163 |
| CCCCc1ncc(/C=C(\Cc2cccs2)C(N)=O)n1Cc1ccccc1Cl | 182 to 184 |
| C#CCN(c1ccc(C(=O)NC(CCc2nnn[nH]2)C(=O)O)cc1)C(C)c1cc2c(=O)[nH]c(C)nc2cc1C (centres undefined) | 207 |
| NC1CN(c2c(F)cc3c(=O)c(C(=O)O)cn(C4CC4)c3c2F)C1 | 214 to 216 |
| NC(=O)c1nnn(Cc2ccccc2Cl)c1N | 206 to 208 |
| FC(F)(F)c1cc(-c2nnn[nH]2)cc(C(F)(F)F)c1 | 179 |
| CCCc1nc2c(N)nc3ccccc3c2n1CCCC(C)N(OC)C(=O)NC1CCCC1 (centres undefined) | 182 to 184 |

| Structure (SMILES) | melting point [°C] |
| --- | --- |
| COc1ccc(F)cc1Oc1c(NS(=O)(=O)c2ccc(C(C)(C)C)cc2)ncnc1OC[C@@H]1COC(C)(C)O1 | > 86 |
| Cc1ccc(C(=O)Nc2cc(N3CCN(C)CC3)cc(C(F)(F)F)c2)cc1Nc1nccc(-c2cccnc2)n1 | 192 to 194 |
| CCOc1ccc(-c2c(Cl)ncn2-c2ccc(S(C)(=O)=O)cc2)cc1 | 207 |
| CC(C)c1ccc(-c2cncc(-c3cccc(C(=O)O)c3)c2)cc1 | 155 to 156 |
| N#Cc1ccc(S)c(C#N)c1 | 180 |
| CN(C(=O)C1CCn2cccc21)c1ccccc1 (centres undefined) | 112 |
| CCOC1(OCC)CCc2c(ccc3c(=O)c4cc(C(=O)O)ccc4oc23)O1 | 191 to 193 |
| COc1ccc(-c2oncc2CO)cc1 | 57 to 58 |
| COc1ccc(S(=O)(=O)N2CCc3cccc(-c4cc(OC)c(OC)c(OC)c4)c32)cc1 | 202 to 205 |
| CC(C)c1c(C=O)c(-c2ccccc2)c2c3ccccc3cnn12 | 163 to 164 |
| COc1cc(/C=C/C(=O)/C=C/c2cc(OC)c(O)c(OC)c2)cc(OC)c1O | 166 to 168 |
| Cc1cc2cc(NS(C)(=O)=O)cc(-c3cc(Cl)nc4ccccc34)c2n1CC(=O)O | 195 to 198 |
| Cc1c(C)c2c(c(C)c1NCc1ccc(Cl)cc1)C(c1ccc(C(C)C)cc1)C(C)(C)O2 (centres undefined) | 93 to 94 |
| C=Cc1cc(C(=O)OC)c(NC(C)=O)cc1C(F)(F)F | 79 to 81 |
| CCOCc1nnc2c(C)c(Cl)ccn12 | 92.9 |
| COc1ccc(-c2n[nH]c(N=CN(C)C)c2C#N)cc1 | 169 to 171 |
| CCCCc1oc2ccccc2c1C(=O)Nc1ccc2c(Br)c(OCC#N)ccc2c1 | 155 to 159 |
| CCOC(=O)C=Cc1ccc(C(F)(F)F)cc1 | 31 to 32.5 |
| O=C(CO)NCc1ccc2ccn(C3CCN(CCc4ccc(F)cc4)CC3)c2c1 | 76 to 78 |
| CCCCCCCc1ccc(-c2ncc(C#N)cn2)cc1 | 96.3 |
| O=C1c2ccccc2-c2c1c1ccccc1c(=O)n2CCCCCCCCCCNS(=O)(=O)c1ccccc1 | 128 to 130 |
| Nc1ncncc1Oc1ccccc1 | 118 to 120 |
| O=C(O)C1CC(O)CN1C(=O)c1ccc2c(c1)OCCO2 (centres undefined) | 142 |
| CC(C)(C)OC(=O)N1CCC(O)(CS(N)(=O)=O)CC1 | 176 to 180 |
